The numbers were not newly measured in patent US20070141027A1, “Non-lethal conditioning methods for conditioning a recipient for bone marrow transplantation” (UNIVERSITY OF LOUISVILLE RESEARCH FOUNDATION INC., priority 2003, published 2007), which cites them from elsewhere.

This data set has as its system mice. To be noted: reduced from 700 cGy TBI alone; CyP 200 mg/kg i.p. 2 days after BMT; ALG or anti-CD8 on day -3 added to it.

Structures are written as SMILES.

Consider `O=P1(N(CCCl)CCCl)NCCCO1` (stereo not shown) [cyclophosphamide (CyP), cyclophosphamide], for which the “TBI dose for allogeneic marrow engraftment” value is listed as 500 cGy.
